One experiment deals with MDA-MB-468. Description: Test Example 1 in vitro cytotoxic activity (CTG), MDA-MB-468. The experiment is classed as cell-based. The following applies: for IC50: Homo sapiens. Here is the method: (§1) In this experiment, the ATP content was determined using CTG to reflect the survival condition of the tumor cells. […] The killing effect of the toxin molecule was then assayed according to this condition.
(§2) 1) Cell plating: each of A549, SKBR3 and MDA-MB-468 was digested with pancreatin, resuspended in a culture medium and counted, and 6.33×10^5 cells were added to the medium to make a final volume of 38 mL. 180 μL of the culture medium was plated in a 96-well plate (3903) to obtain a cell density of 3 K/well, and the cells were cultured at 37° C. for 24 h.
(§3) 2 mM solution (10-fold dilution of stock solution in DMSO) was prepared in column 1 of the plate 1, then 10-fold gradient dilution in DMSO was performed in columns 2 to 10. The wells in column 11 were filled with DMSO. 95 μL of corresponding culture medium was added to each well of columns 2 to 11 of the plate 2, and 5 μL of solution was pipetted from columns 2 to 11 of the plate 1 and added to the plate 2. After the solution was mixed well, 20 μL of solution was pipetted and added to the plated cells. Each sample was run in duplicate. The cells were continuously cultured for 5 days.
(§4) 3) CTG assay: the plate was taken out and allowed to equilibrate to room temperature. 90 μL of CTG was added to each well and reacted at room temperature for 10 min away from the light. The luminescence value was read using a microplate reader and IC50 was calculated.

The test system of another experiment is SKBR3. Description: Test Example 1 in vitro cytotoxic activity (CTG), SKBR3. The class given is cell-based. The following applies: for IC50: Homo sapiens, SK-BR-3, 120 h. Here is the method: as §1, §2, §3, §4
In the next experiment the test system is A549. Description: Test Example 1 in vitro cytotoxic activity (CTG), A549. The class given is cell-based. The following applies: for IC50: Homo sapiens. Here is the method:
as §1, §2, §3, §4

In experiment [1] the target is T1, human CD79B (Homo sapiens, UniProt P40259).
T1 sequence (P40259 29-159 limits assumed): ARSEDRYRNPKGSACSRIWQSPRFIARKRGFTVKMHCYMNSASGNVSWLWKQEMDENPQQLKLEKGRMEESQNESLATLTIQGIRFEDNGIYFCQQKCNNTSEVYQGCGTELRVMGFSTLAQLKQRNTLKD
Briefly: ELISA of purified anti-human CD79B mouse monoclonal antibodies. The class given is binding. More on the design: the extracellular region (ECD) of human CD79B comprises 159 amino acids (Met1-Asp159); made in house; host or cells: 293F cells. Particulars: purified antibodies diluted 1:10 from 100 nM; FIG. 8. Here is the method: (§5) 2) Assay on anti-human CD79B mouse monoclonal antibodies by ELISA A 96-well plate was coated with 1 μg/mL antigen at 50 μL/well and incubated in a refrigerator at 4° C. overnight. The next day, the coated antigen plate was washed once (washing solution: 1×PBST). After washing, the plate was blocked with 1% BSA blocking solution prepared in 1×PBST at 37° C. for 1 h. After washing the plate 3 times with 1×PBST, 50 μL of antibody diluted in a 1:10 ratio from 100 nM was added, and the plate was incubated in an incubator at 37° C. for 1 h. After washing the plate 3 times with 1×PBST, 100 μL of goat anti-mouse secondary antibody diluted in a 1:5000 ratio was added, and the plate was incubated in an incubator at 37° C. for 0.5 h. After washing the plate, TMB color development solutions A and B were mixed in a 1:1 ratio for color development. 15 min later, the color development reaction was stopped with 1 N hydrochloric acid. […] value was read at 450 nm on a Spectra Max M5 microplate reader.
On the technique in general: ELISA stands for enzyme-linked immunosorbent assay.

The target in experiment [2] is T2, CD79B protein on the surface of DoHH2 cells (Homo sapiens, UniProt P40259).
T2 construct: endogenous in cells; host or cells: DoHH2 (DOHH-2) cells
T2 sequence (P40259 29-229): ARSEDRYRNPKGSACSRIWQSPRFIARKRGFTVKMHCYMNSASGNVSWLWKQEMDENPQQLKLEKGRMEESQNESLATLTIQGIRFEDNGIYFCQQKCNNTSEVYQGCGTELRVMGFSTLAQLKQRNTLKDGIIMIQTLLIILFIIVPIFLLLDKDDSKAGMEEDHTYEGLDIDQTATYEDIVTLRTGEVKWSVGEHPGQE
T2 sequence (P11912 33-226 partner): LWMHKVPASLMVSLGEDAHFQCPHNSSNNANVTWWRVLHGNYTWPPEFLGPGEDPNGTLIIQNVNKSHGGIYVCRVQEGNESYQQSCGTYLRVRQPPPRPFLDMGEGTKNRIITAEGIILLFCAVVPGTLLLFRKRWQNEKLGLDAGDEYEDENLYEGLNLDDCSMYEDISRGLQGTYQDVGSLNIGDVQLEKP
Description: FACS of purified anti-human CD79B mouse monoclonal antibodies on DoHH2 cells. The experiment is classed as binding. The following applies: for FACS binding force: antibodies diluted 1:10 from 100 nM, FIGS. 9A, 9B; for FACS binding force compared with SN8: positive control antibody SN8. Here is the method: 3) Assay on anti-human CD79B mouse monoclonal antibodies by FACS The cell suspension of DoHH2 cells was centrifuged, resuspended in PBS containing 0.1% BSA, and counted. 100 μL of antibody diluted in a 1:10 ratio from 100 nM was added, and the cells were incubated at room temperature for 1 h and washed three times. Then Anti-Mouse IgG (Fc specific)-FITC secondary antibody was added, and the cells were incubated at room temperature for 30 min away from the light, washed three times, gently resuspended in PBS containing 0.1% BSA, and loaded on the machine for assay. […] The specific data are shown in FIGS. 9A and 9B, in which hIgG1 is a negative control antibody and SN8 is a positive control antibody. SN8 is an antibody (reference sequence source: US20170362318A) used in the antibody-drug conjugate polatuzumab vedotin developed by Roche pharmaceutical. Polatuzumab vedotin has been approved by the FDA for marketing.
For orientation: In flow cytometry, cells or beads pass a laser one at a time.

The target of experiment [3] is T2, CD79B protein on the surface of DoHH2 cells. Description: FACS of anti-human CD79B hybridoma positive clones. The experiment is classed as binding. The protocol: 4) FACS screening The suspension of DoHH2 cells was centrifuged, resuspended in PBS containing 0.1% BSA, and counted. The test serum was added, and the cells were incubated at room temperature for 60 min and washed. Then Anti-Mouse IgG (Fc specific)-FITC secondary antibody was added, and the cells were incubated at room temperature for 30 min away from the light, washed three times, gently resuspended in PBS containing 0.1% BSA, and loaded on the machine for assay.
(§6) 5) Identification of hybridoma positive clones A plurality of specific antibodies against human CD79B antigen were obtained; and 17 strains of hybridomas having strongest binding force to ELISA and FACS in assays were taken for production and purification of antibodies. Specific antibodies against monkey CD79B antigen were also obtained; and 4 strains of hybridomas having strongest binding force to ELISA and FACS in assays were taken for production and purification of antibodies. Assay results of anti-monkey CD79B hybridoma positive clone cells by FACS are shown in Table 4. mIgG was used as negative control in the both assays.

Experiment [4] addresses T1, human CD79B. Description: ELISA of anti-human CD79B hybridoma positive clones. More on the design: the extracellular region (ECD) of human CD79B comprises 159 amino acids (Met1-Asp159); made in house; host or cells: 293F cells. Particulars: hybridoma cell supernatant, read at 450 nm. The class given is binding. The protocol: as §5, with “3)” for “2) Assay on anti-human CD79B mouse monoclonal antibodies by”, “ELISA screening” for “ELISA”, “the test cell supernatant” for “antibody diluted in a 1:10 ratio from 100 nM”
as §6

Read-outs that look alike come from different tables or passages of the source.

Consider `C=C1C[C@@H]2CC[C@@]34C[C@H]5O[C@H]6[C@@H](O3)[C@H]3O[C@H](CC[C@@H]3O[C@H]6[C@H]5O4)CC(=O)C[C@@H]3[C@@H](OC)[C@@H](C[C@@H](CN)OC)O[C@H]3C[C@H]3O[C@@H](CC[C@@H]1O2)C[C@@H](C)C3=C` [D-1], for which the IC50 – broadly, the concentration needed to halve the response being measured – was 0.183 nM in the experiment with MDA-MB-468 (MDA-MB-468, 120 h); 0.205 nM in the experiment on SKBR3; 0.515 nM in the experiment on A549 (A549, 120 h). Moreover, the “Maximum inhibition (%)” value in the experiment on MDA-MB-468 (MDA-MB-468, 5 days, CTG) was found to be 88.01%; in the experiment with SKBR3 (SKBR3, 5 days, CTG), 96.87%; in the experiment with A549 (A549, 5 days, CTG), 81.34%. Further, the “killing effect compared with eribulin” value in the experiment on SKBR3 (three tumor cell lines SKBR3, MDA-MB-468 and A549) is “good killing effect in three tumor cell lines and is significantly superior to the positive drug eribulin”.

Regarding `C=C1C[C@@H]2CC[C@@]34C[C@H]5O[C@H]6[C@@H](O3)[C@H]3O[C@H](CC[C@@H]3O[C@H]6[C@H]5O4)CC(=O)C[C@@H]3[C@@H](OC)[C@@H](C[C@H](O)CN)O[C@H]3C[C@H]3O[C@@H](CC[C@@H]1O2)C[C@@H](C)C3=C` [Eribulin, reference compound], the IC50 with MDA-MB-468 (120 h, MDA-MB-468, 5 days, CTG, read-out: IC50) worked out at 0.482 nM; in the experiment with SKBR3 (SKBR3, 5 days, CTG, read-out: IC50), 0.715 nM; in the experiment with A549 (120 h, A549, 5 days, CTG, read-out: IC50), 0.661 nM.

B1: mAb016: anti-human CD79B mouse monoclonal antibody, hybridoma clone 83C2D4 (antibody, V domains shown)
VH: QVQLQQSGAELARPGASVKLSCKASGYIFTNYGIIWVKQRTGQGLEWIGDIFPGSGNTYYNENFKGKATLTADKSSSTAYMELRSLTSEDSAVYFCSRGELGDFDYWGQGTTLTVSS
VL: VVLMTQTPLSLPVSLGDQASISCRSSQNIVHSDGTTYLEWYLQKPGQSPKLLIYKVSNRFSGVPDRFSGSGSGTDFTLKISRVEAEDLGIYYCFQGSHVPWTFGGGTKLEIK
Consider B1, for which, in the experiment with human CD79B [1], the ELISA binding force entry was “strongest ELISA binding force”. Also, in experiment [2], the FACS binding force result is reported as “strongest FACS binding force” and the “FACS binding force compared with SN8” value was “superior binding force to SN8”. The molecule further displayed a Mean fluorescence value in experiment [3] of 9990. For the same molecule, the “Results (OD450)” value in the experiment with human CD79B [4] is given as 3.46.

B2: mAb017: anti-human CD79B mouse monoclonal antibody, clone 86F11F6; VH SEQ ID NO: 5, VL SEQ ID NO: 6 (antibody, listed as Mus musculus, V domains shown)
VH: QVQLQQSGAELARPGASVKLSCKASGYTFTTYGINWVKQRTGQGLEWIGEIYPRSGNIYYNEKFKGKATLTADKSSSTAYMELRSLTSEDSAVYFCARGSDYDGDFAYWGQGTLVTVSA
VL: DVLMTQTPLSLPVSLGDQASISCRSSQSIVHHDGNTYLEWYLQKPGQSPKLLIYKVSNRFSGVPDRFSGSGSGTDFTLKISRVEAEDLGVYYCFQGSHVPWTFGGGTQLEIK
As for B2, in the experiment with human CD79B [1], the ELISA binding force result was “strongest ELISA binding force”. In addition, in experiment [2], the FACS binding force entry is reported as “strongest FACS binding force” and the “FACS binding force compared with SN8” value was “superior binding force to SN8”. In experiment [3], this molecule showed a Mean fluorescence value of 8132. For the same molecule, the “Results (OD450)” value in the experiment with human CD79B [4] is listed as 3.80.
